According to patent publication US6040331A, “Nerve cell protective agents” (Mochida Pharmaceutical Co., Ltd., priority 1996, dated 2000):
Converted amounts (≈) assume the structure as drawn. Counter-ions that a name gives are not always drawn. *1 amine or outer side, *2 acyl side, *3 side chain or, on linkers, in order; H or OH if unused. Where a SMILES comes first, the peptide text is derived from it. Bridges are numbered along the chain shown (N, C = ends). Roman numbers before positions name the chains, in order. [ ]: non-standard residue; d: D form. Actinocin(9to1) = Cc1c2oc3c(C)ccc(C(=O)[*:1])c3nc-2c(C(=O)[*:2])c(N)c1=O; NMeV = CN[C@H](C(=O)O)C(C)C; Sar = CNCC(=O)O

Test system: neurons isolated from the cerebrum
Assay: Naturally occurring neuronal death suppressing action (serum-free cultivation, Crystal Violet)
Assay type: cell-based, embryonic day 16 rats
Details: Rattus norvegicus, Neuron, 72 h; 0.3 μg/ml; serum-free, 3 days; read-out: Suppression of Naturally Occurring Neuronal Death
Experimental: The action of compounds to suppress the naturally occurring death of neurons was evaluated in terms of their effectiveness in suppressing or inhibiting the naturally occurring death of neurons as induced by exposing cultured neurons to serum-free cultivation conditions. An experiment was run by a method adapted from the method of Shimojo et al., Neurosci. Lett., 151, 170, 1993. Specifically, neurons were isolated from the cerebrum of embryonic day 16 rats in the usual manner, suspended in a DMEM/F12 medium containing 1% fetal bovine serum, seeded onto a polylysine-coated culture plate at a density of 5×10^4 cells per square centimeter and cultivated at 37° C. in 95% air+5% CO2. After one day of culture, the medium was replaced with a serum-free medium containing a compound to be tested and the cultivation was continued for 3 more days. Subsequently, the cells were fixed with 1% glutaraldehyde and their number was determined by calorimetric quantification using Crystal Violet (Anal. Biochem., 182, 16-19, 1989). The percent suppression of neuronal death by the test compound was determined by the following formula:
(§1) 100×(ODtest-ODcontrol)/(ODnormal-ODcontrol) (%)
where ODtest is the number of cells (absorbance) in the group of addition of test compound after serum removal, ODcontrol is the number of cells (absorbance) in a control group after serum removal, and ODnormal is the number of cells (absorbance) in a control (normal) group without serum removal.

Row | Compound | inhibition at 0.3 µg/mL
1 | Cc1ccc(-c2[nH]c3cccc4c3c2CCC4N)cc1 (stereo not drawn) [Example 99, 5-amino-2-(4-methylphenyl)-1,3,4,5-tetrahydrobenz[cd]indole] | 59%
2 | NC1CCc2c(-c3ccc(Cl)cc3)[nH]c3c(Cl)ccc1c23 (stereo not drawn) [Example 103, 5-amino-8-chloro-2-(4-chlorophenyl)-1,3,4,5-tetrahydrobenz[cd]indole] | 56%
3 | NC1CCc2c(-c3ccccc3)[nH]c3ccc(O)c1c23 (stereo not drawn) [Example 174, 5-amino-6-hydroxy-2-phenyl-1,3,4,5-tetrahydrobenz[cd]indole] | 64%
4 | NC1CCc2c(-c3ccccc3O)[nH]c3cccc1c23 (stereo not drawn) [Example 185, 5-amino-2-(2-hydroxyphenyl)-1,3,4,5-tetrahydrobenz[cd]indole] | 100%

Same assay, conditions: Rattus norvegicus, Neuron, 72 h; 1.0 μg/ml; serum-free, 3 days; read-out: Suppression of Naturally Occurring Neuronal Death

Row | Compound | inhibition at 1 µg/mL
5 | NC1CCc2c(-c3ccc(Cl)cc3)[nH]c3cccc1c23 (stereo not drawn) [Example 96, 5-amino-2-(4-chlorophenyl)-1,3,4,5-tetrahydrobenz[cd]indole] | 37%
6 | CNC1CCc2c(-c3ccccc3)[nH]c3cccc1c23 (stereo not drawn) [Example 130, 5-(N-methylamino)-2-phenyl-1,3,4,5-tetrahydrobenz[cd]indole] | 76%
7 | c1ccc(-c2[nH]c3cccc4c3c2CCC4N2CCOCC2)cc1 (stereo not drawn) [Example 148, 5-morpholino-2-phenyl-1,3,4,5-tetrahydrobenz[cd]indole] | 65%
8 | c1ccc(CNC2CCc3c(-c4ccccc4)[nH]c4cccc2c34)cc1 (stereo not drawn) [Example 153, 5-(N-benzylamino)-2-phenyl-1,3,4,5-tetrahydrobenz[cd]indole] | 100%
9 | OC1CCN(C2CCc3c(-c4ccccc4)[nH]c4cccc2c34)CC1 (stereo not drawn) [Example 216, 5-(4-hydroxypiperidino)-2-phenyl-1,3,4,5-tetrahydrobenz[cd]indole] | 75%

Same assay, conditions: Rattus norvegicus, Neuron, 72 h; 3.0 μg/ml; serum-free, 3 days; read-out: Suppression of Naturally Occurring Neuronal Death

Row | Compound | inhibition at 3 µg/mL
10 | NC1CCc2c(-c3ccccc3)[nH]c3ccc(Br)c1c23 (stereo not drawn) [Example 87, 5-amino-6-bromo-2-phenyl-1,3,4,5-tetrahydrobenz[cd]indole] | 84%
11 | CN(C)C1CCc2c(-c3ccccc3)[nH]c3cccc1c23 (stereo not drawn) [Example 121, 5-(N,N-dimethylamino)2-phenyl-1,3,4,5-tetrahydrobenz[cd]indole] | 72%
12 | CC(=O)NC1CCc2c(-c3ccccc3)[nH]c3cccc1c23 (stereo not drawn) [Example 124, 5-(N-acetylamino)-2-phenyl-1,3,4,5-tetrahydrobenz[cd]indole] | 23%
13 | c1ccc(-c2[nH]c3cccc4c3c2CCC4N2CCCCC2)cc1 (stereo not drawn) [Example 151, 2-phenyl-5-piperidino-1,3,4,5-tetrahydrobenz[cd]indole] | 98%
14 | Cn1c(-c2ccccc2)c2c3c(cccc31)C(NCC(=O)O)CC2 (stereo not drawn) [Example 223, 5-[N-(carboxymethyl)]amino-1-methyl-2-phenyl-1,3,4,5-tetrahydrobenz[cd]indole hydrochloride] | 81%
15 | CCOC(=O)CNC1CCc2c(-c3ccccc3)n(C)c3cccc1c23 (stereo not drawn) [Example 244, 5-[N-(ethoxycarbonylmethyl)]amino-1-methyl-2-phenyl-1,3,4,5-tetrahydrobenz[cd]indole hydrochloride] | 57%

Same assay, conditions: serum-free condition

Row | Compound | suppression of death of neurons under the serum-free condition (in words)
16 | Cc1c2oc3c(C)ccc(C(=O)N[C@@H]4C(=O)N[C@H](C(C)C)C(=O)N5CCC[C@H]5C(=O)N(C)CC(=O)N(C)[C@@H](C(C)C)C(=O)O[C@@H]4C)c3nc-2c(C(=O)N[C@@H]2C(=O)N[C@H](C(C)C)C(=O)N3CCC[C@H]3C(=O)N(C)CC(=O)N(C)[C@@H](C(C)C)C(=O)O[C@@H]2C)c(N)c1=O [actinomycin D, reference compound] (I: T[dV]P[Sar][NMeV] / II: T[dV]P[Sar][NMeV]; ester I:1-I:C, II:1-II:C; linker I:N-II:N via Actinocin(9to1)) | suppressed
17 | O=C(O)C1=CC(=C(c2ccc(O)c(C(=O)O)c2)c2ccc(O)c(C(=O)O)c2)C=CC1=O [aurin tricarboxylic acid, reference compound] | suppressed
18 | C[C@@H]1C[C@@H]([C@H](O)CC2CC(=O)NC(=O)C2)C(=O)[C@@H](C)C1 [cycloheximide, reference compound] | suppressed

Test system: neurons isolated from the cerebrum
Assay: Veratrine-induced neuronal death suppressing action (MTT)
Assay type: cell-based, embryonic day 16 rats
Details: Rattus norvegicus, Neuron; veratrine 0.35 mM; MTT after 24 h; probit method; read-out: IC50 (50% suppression of veratrine-induced neuronal death)
Experimental: The action of compounds to suppress the death of neurons induced by veratrine was evaluated in terms of their effectiveness in suppressing the neuronal death as induced by direct addition of veratrine. An experiment was run by a method adapted from the method of Powells et al., J. Pharmacol. Exp. Therapeutics, 255, 1117, 1987. Specifically, neurons were isolated from the cerebrum of embryonic day 16 rats in the usual manner, suspended in a MEM medium containing 10% fetal bovine serum, seeded onto a polylysine-coated culture plate at a density of 2.5×10^5 cells per square centimeter and cultivated at 37° C. in 95% air+5% CO2. Starting on the fifth day of cultivation, treatment was conducted with 10 μM of cytosine arabinoside for 2 days and the cultivation was continued until the 12th day, when a test was run as follows. The cells were treated with a buffer solution containing veratrine (0.35 mM) and a test compound, replaced in a serum-containing medium and cultivated for another 24 h. Subsequently, the number of viable cells was determined by calorimetric quantification using 3-(4,5-dimethylthiazol-2-yl)-2,5-diphenyltetrazolium bromide (MTT). The percent suppression of neuronal death by the test compound was determined by the following formula:
as §1
where ODtest is the number of cells (absorbance) in the group of addition of veratrine+test compound, ODcontrol is the number of cells (absorbance) in a control group of addition of veratrine, and ODnormal is the number of cells (absorbance) in a control (normal) group without addition of veratrine.
In addition, IC50 values indicating the effectiveness in achieving 50% suppression of neuronal death were calculated by the probit method on the basis of the result from more than one concentration.

Row | Compound | IC50
19 | NC1CCc2c(-c3ccccc3)[nH]c3ccc([N+](=O)[O-])c1c23 (stereo not drawn) [Example 90, 5-amino-6-nitro-2-phenyl-1,3,4,5-tetrahydrobenz[cd]indole] | 0.7 µg/mL (≈ 2.39 µM)
20 | NC1CCc2c(-c3ccc(F)cc3)[nH]c3cccc1c23 (stereo not drawn) [Example 95, 5-amino-2-(4-fluorophenyl)-1,3,4,5-tetrahydrobenz[cd]indole] | 3.1 µg/mL (≈ 11.6 µM)
21 | Cn1c(-c2ccccc2)c2c3c(cccc31)C(N)CC2 (stereo not drawn) [Example 107, 5-amino-1-methyl-2-phenyl-1,3,4,5-tetrahydrobenz[cd]indole] | 0.33 µg/mL (≈ 1.26 µM)
22 | COc1ccc2[nH]c(-c3ccccc3)c3c2c1C(N)CC3 (stereo not drawn) [Example 110, 5-amino-6-methoxy-2-phenyl-1,3,4,5-tetrahydrobenz[cd]indole] | 1.8 µg/mL (≈ 6.47 µM)
23 | Cc1cc2c3c(c(-c4ccccc4)[nH]c3c1)CCC2N (stereo not drawn) [Example 113, 5-amino-7-methyl-2-phenyl-1,3,4,5-tetrahydrobenz[cd]indole] | 0.7 µg/mL (≈ 2.67 µM)
24 | CCCN(CCC)C1CCc2c(-c3ccccc3)[nH]c3cccc1c23 (stereo not drawn) [Example 150, 5-(N,N-dipropylamino)-2-phenyl-1,3,4,5-tetrahydrobenz[cd]indole] | 1.2 µg/mL (≈ 3.61 µM)
25 | COC(=O)c1ccc(-c2[nH]c3c(Cl)ccc4c3c2CCC4N)cc1 (stereo not drawn) [Example 171, 5-amino-8-chloro-2-(4-methoxycarbonylphenyl)-1,3,4,5-tetrahydrobenz[cd]indole] | 1.9 µg/mL (≈ 5.57 µM)
26 | NC1CCc2c(-c3ccccc3)[nH]c3ccc(O)c1c23 (stereo not drawn) [Example 174, 5-amino-6-hydroxy-2-phenyl-1,3,4,5-tetrahydrobenz[cd]indole] | 3.4 µg/mL (≈ 12.9 µM)
27 | COc1ccccc1-c1[nH]c2cccc3c2c1CCC3N (stereo not drawn) [Example 184, 5-amino-2-(2-methoxyphenyl)-1,3,4,5-tetrahydrobenz[cd]indole] | 0.8 µg/mL (≈ 2.87 µM)
28 | COC(=O)C1CCN(C2CCc3c(-c4ccccc4)[nH]c4cccc2c34)CC1.Cl (stereo not drawn) [Example 225, 5-(4-methoxycarbonylpiperidino)-2-phenyl-1,3,4,5-tetrahydrobenz[cd]indole hydrochloride] | 2.2 µg/mL
29 | Cl.Cn1c(-c2ccccc2Cl)c2c3c(cccc31)C(N1CCOCC1)CC2 (stereo not drawn) [Example 239, 2-(2-chlorophenyl)-1-methyl-5-morpholino-1,3,4,5-tetrahydrobenz[cd]indole hydrochloride] | 2.2 µg/mL

Test system: pyramidal cells in the hippocampus CA1 region
Assay: Effectiveness in gerbil model of delayed neuronal death (damage score, 4 min ischemia)
Assay type: in vivo
Details: 2 mg/kg, carotid arteries 5 min before ischemia; score 0-4; ischemic control 2.9 ± 0.3; mean ± standard error (Table 3-1)
Experimental: Specifically, the cervical part of a gerbil under anesthesia by halothane inhalation was incised along the median line to expose the carotid artery on both sides, which were occuluded with clips for 4 min and thereafter brought back to patency. After suturing the incised part, the anesthetization was turned off and the animal was brought back to keeping under normal condition. Three days after loading of cerebral ischemia, the gerbil was anesthetized by administering pentobarbital, fixed by transcardiac formalin perfusion and had the brain isolated. A coronary slice including the fimbria hippocampi was prepared from the isolated brain and stained with Cresyl Violet. The pyramidal cells in the hippocampus CA1 region were examined under an optical microscope and the degree of damage was rated by the following scores: 0, no damage; 1, slight damage; 2, moderate damage; 3, significant damage; 4, total damage. Each test compound was administered through the carotid arteries 5 min before ischemia.

Row | Compound | Score of damage to hippocampus CA1
30 | NC1CCc2c(-c3ccccc3)[nH]c3ccc(Br)c1c23 (stereo not drawn) [Example 87, 5-amino-6-bromo-2-phenyl-1,3,4,5-tetrahydrobenz[cd]indole] | 1.9 ± 0.6

Same assay, conditions: 5 mg/kg, carotid arteries 5 min before ischemia; score 0-4; ischemic control 2.9 ± 0.3; mean ± standard error (Table 3-1)

Row | Compound | Score of damage to hippocampus CA1
31 | CNC1CCc2c(-c3ccccc3)[nH]c3cccc1c23 (stereo not drawn) [Example 130, 5-(N-methylamino)-2-phenyl-1,3,4,5-tetrahydrobenz[cd]indole] | 1.9 ± 0.1

Same assay, conditions: 10 mg/kg, carotid arteries 5 min before ischemia; score 0-4; ischemic control 2.9 ± 0.3; mean ± standard error (Table 3-1)

Row | Compound | Score of damage to hippocampus CA1
32 | Cn1c(-c2ccccc2)c2c3c(cccc31)C(N)CC2 (stereo not drawn) [Example 107, 5-amino-1-methyl-2-phenyl-1,3,4,5-tetrahydrobenz[cd]indole] | 0.5 ± 0.5

Same assay, conditions: 10 mg/kg, carotid arteries 5 min before ischemia; score 0-4; ischemic control 3.5 ± 0.4; mean ± standard error (Table 3-2)

Row | Compound | Score of damage to hippocampus CA1
33 | Cl.Cn1c(-c2ccccc2F)c2c3c(cccc31)C(N1CCOCC1)CC2 (stereo not drawn) [Example 240, 2-(2-fluorophenyl)-1-methyl-5-morpholino-1,3,4,5-tetrahydrobenz[cd]indole hydrochloride] | 2.1 ± 0.5
